{"source": "paper PMC5465209", "about": "(Scientific Reports, 2017)", "key": {"[1]": {"tested_on": "GFP-NFAT-1 in HEK293 cells", "assay": "Inhibition of GFP-NFAT-1 nuclear translocation", "format": "cell-based", "conditions": "1 μM FK506 for 2 h, then 500 nM ionomycin 15 min; transfected HEK 293 cells; five independent experiments", "procedure": "HEK293 cells (ATCC) were plated onto glass cover slips in 35-mm culture dishes. GFP-NFAT-1 plasmid[6] was transfected with Lipofectamine 2000 (ThermoFisher Scientific K.K., Yokohama, Japan). […] The nuclear fluorescence intensity was quantified using a Fluoview device (Olympus, Tokyo, Japan) and measured with AquaCosmos software (Hamamatsu Photonics). The fluorescent intensity of 10 cells was counted; five sets of experiments were conducted. Background fluorescent intensity was subtracted from all experiments."}, "[2]": {"tested_on": "IL-2 protein in Jurkat cells", "assay": "Inhibition of the production of IL-2 (ELISA of supernatant)", "format": "cell-based, human", "conditions": "100 nM FK506, then PMA and ionomycin 12 h", "procedure": "Jurkat cells (1 × 10^5) were treated with medium containing peptides or FK506, then incubated with the same amount of medium containing 200 nM PMA (Sigma-Aldrich) and 4 μM ionomycin for an additional 12 h. IL-2 protein was detected in the supernatant of cells using an ELISA kit according to the manufacturer’s instructions (eBioscience, San Diego, CA, USA)."}, "[3]": {"tested_on": "βTC6 cells", "assay": "Insulin secretion in βTC6 cells (mouse insulin ELISA)", "format": "cell-based", "conditions": "FK506 0.01, 0.1 and 1 μM for 97 h, p < 0.05 for 0.01 μM, p < 0.01 for 0.1 and 1 μM, dose-dependent", "procedure": "(§1) After 48, 96, or 144 hours, fresh medium was added; the samples taken to investigate the release of insulin were taken 1 hour later and assayed with a mouse insulin ELISA kit (Shibayagi, Shibukawa, Gunma, Japan)."}, "[4]": {"tested_on": "isolated islets from BALB/c mice", "assay": "Insulin secretion in isolated islets (mouse insulin ELISA)", "format": "cell-based", "conditions": "FK506 0.01, 0.1 and 1 μM for 97 h, p < 0.05 for 0.01 μM, p < 0.01 for 0.1 and 1 μM, dose-dependent", "procedure": "as §1"}, "[5]": {"tested_on": "secretion of insulin", "conditions": "cited from earlier work", "description": "An important mechanism whereby calcineurin promotes the activation of T cells and the induction of cytokine-related genes is largely attributed to a family of transcriptional regulators that are referred to as NFAT. The immunosuppressants cyclosporine A and FK506, which are used clinically to prevent transplant rejection, inhibit the activity of calcineurin phosphatase on all its protein substrates, including NFAT[1], [2]."}}, "data": [{"smiles": "C=CC[C@@H]1/C=C(\\C)C[C@H](C)C[C@H](OC)[C@H]2O[C@@](O)(C(=O)C(=O)N3CCCC[C@H]3C(=O)O[C@H](/C(C)=C/[C@@H]3CC[C@@H](O)[C@H](OC)C3)[C@H](C)[C@@H](O)CC1=O)[C@H](C)C[C@@H]2OC", "note": "[FK506]", "values": [{"measurement": "Ionomycin-induced GFP-NFAT-1 nuclear translocation", "setting": "[1]", "value": "strong inhibition"}, {"measurement": "Production of IL-2", "setting": "[2]", "value": "completely inhibited"}, {"measurement": "Insulin secretion", "setting": "[3]", "value": "significantly inhibited"}, {"measurement": "Insulin secretion", "setting": "[4]", "value": "significantly inhibited"}, {"measurement": "Secretion of insulin", "setting": "[5]", "value": "dose-dependent decrease"}]}]}
